Experimental data reported in patent US8450332B2, “LIMK2 inhibitors, compositions comprising them, and methods of their use” (Lexicon Pharmaceuticals, Inc., priority 2008, dated 2013).

Target: T1, LIMK2 (Homo sapiens, UniProt P53671)
T1 construct: His tag (histidine-tagged; pFastBacHT vector); made in house; host or cells: Sf9 insect cells (BAC-to-BAC baculovirus system)
Test: In vitro LIMK2 inhibition assay (33P incorporation into myelin basic protein flash plates)
Type: biochemical
Method: Using the procedures described herein and methods known in the art, the additional compounds listed below in Table 1 were prepared. The LIMK2 IC50 data that is provided below for some of the compounds was determined using the assay described in Example 32.
An in vitro assay used to identify LIMK2 inhibitors was developed. The analytical readout was the incorporation of ^33P from ATP substrate into immobilized myelin basic protein coated flash plates (Perkin Elmer Biosciences), which were counted on a scintillation counter equipped with a plate reader (TopCount, Packard Bioscience, Meriden, Conn.). Using 384 well flat MBP flashplates, total assay volume was 50 μl. The HTS program utilized a Biomek FX for dilution.
For each assay, the ingredients and conditions were as follows: 200 ng of enzyme was incubated in assay buffer (1× assay buffer contains 30 mM HEPES (pH 8.0), 5 mM DTT, and 10 mM MgCl2), 10 μM ATP, 0.2 μCi [gamma-^33P]-ATP and 10 μM of potential inhibitory compound. The reaction was incubated at room temperature for 60 minutes, washed 3 times with 75 μl of stop/wash buffer (1× stop/was buffer contains 50 mM EDTA and 20 mM Tris (pH 7.4)), and then the plates were read on the scintillation counter. Different concentrations of staurosporine (400 nM, 200 nM, 100 nM and 50 nM; purchased from BIOMOL (Plymouth Meeting, Pa.)) were used as controls on each plate.

T1 sequence (P53671 whole entry): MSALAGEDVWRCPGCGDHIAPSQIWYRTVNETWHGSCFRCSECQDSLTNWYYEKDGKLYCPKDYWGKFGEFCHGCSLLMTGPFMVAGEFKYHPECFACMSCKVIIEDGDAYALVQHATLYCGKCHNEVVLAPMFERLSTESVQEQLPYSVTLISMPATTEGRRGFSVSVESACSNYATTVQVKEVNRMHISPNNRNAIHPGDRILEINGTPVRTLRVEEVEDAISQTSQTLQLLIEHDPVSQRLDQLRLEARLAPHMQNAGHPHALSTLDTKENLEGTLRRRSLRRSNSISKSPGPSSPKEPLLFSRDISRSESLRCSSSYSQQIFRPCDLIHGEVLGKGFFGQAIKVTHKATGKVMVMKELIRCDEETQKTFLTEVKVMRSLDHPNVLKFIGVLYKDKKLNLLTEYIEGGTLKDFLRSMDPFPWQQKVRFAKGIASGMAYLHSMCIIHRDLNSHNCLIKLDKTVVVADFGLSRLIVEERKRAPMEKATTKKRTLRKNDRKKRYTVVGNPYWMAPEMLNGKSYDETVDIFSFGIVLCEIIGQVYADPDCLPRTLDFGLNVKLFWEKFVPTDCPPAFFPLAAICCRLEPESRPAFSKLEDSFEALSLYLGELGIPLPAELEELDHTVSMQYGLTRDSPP

Compound	IC50
Cc1c[nH]c2ncnc(N3CCC(CCN4CCOCC4)(C(=O)Nc4cccc(OC(=O)N(C)C)c4)CC3)c12 [3-(1-(5-methyl-7H-pyrrolo[2,3-d]pyrimidin-4-yl)-4-(2-morpholinoethyl)piperidine-4-carboxamido)phenyl dimethylcarbamate]	< 0.25 µM
Cc1c[nH]c2ncnc(N3CCC(C(=O)Nc4cccc(OC(=O)N(C)C)c4)(c4nn[nH]n4)CC3)c12 [3-(1-(5-methyl-7H-pyrrolo[2,3-d]pyrimidin-4-yl)-4-(2H-tetrazol-5-yl)piperidine-4-carboxamido)phenyl dimethylcarbamate]	< 0.25 µM
Cc1c[nH]c2ncnc(N3CCC(CNC(=O)N4CCOCC4)(C(=O)Nc4cccc(OC(=O)N(C)C)c4)CC3)c12 [3-(1-(5-methyl-7H-pyrrolo[2,3-d]pyrimidin-4-yl)-4-((morpholine-4-carboxamido)methyl)piperidine-4-carboxamido)phenyl dimethylcarbamate]	< 0.25 µM
Cc1c[nH]c2ncnc(N3CCC(CNS(N)(=O)=O)(C(=O)Nc4cccc(OC(=O)N(C)C)c4)CC3)c12 [3-(1-(5-methyl-7H-pyrrolo[2,3-d]pyrimidin-4-yl)-4-((sulfamoylamino)methyl)piperidine-4-carboxamido)phenyl dimethylcarbamate]	< 0.25 µM
Cc1c[nH]c2ncnc(N3CCC(CNS(C)(=O)=O)(C(=O)Nc4cccc(OC(=O)N(C)C)c4)CC3)c12 [3-(1-(5-methyl-7H-pyrrolo[2,3-d]pyrimidin-4-yl)-4-(methylsulfonamidomethyl)piperidine-4-carboxamido)phenyl dimethylcarbamate]	< 0.25 µM
Cc1c[nH]c2ncnc(N3CCC(CN4CCOCC4)(C(=O)Nc4cccc(OC(=O)N(C)C)c4)CC3)c12 [3-(1-(5-methyl-7H-pyrrolo[2,3-d]pyrimidin-4-yl)-4-(morpholinomethyl)piperidine-4-carboxamido)phenyl dimethylcarbamate]	< 0.25 µM
Cc1c[nH]c2ncnc(N3CCC(CNC(N)=O)(C(=O)Nc4cccc(OC(=O)N(C)C)c4)CC3)c12 [3-(1-(5-methyl-7H-pyrrolo[2,3-d]pyrimidin-4-yl)-4-(ureidomethyl)piperidine-4-carboxamido)phenyl dimethylcarbamate]	< 0.25 µM
CCCC1(C(=O)Nc2cccc(OC(=O)N(C)C)c2)CCN(c2ncnc3[nH]cc(C)c23)CC1 [3-(1-(5-methyl-7H-pyrrolo[2,3-d]pyrimidin-4-yl)-4-propylpiperidine-4-carboxamido)phenyl dimethylcarbamate]	< 0.25 µM
Cc1c[nH]c2ncnc(N3CCC(NCCOCc4ccccc4)(C(=O)Nc4cccc(OC(=O)N(C)C)c4)CC3)c12 [3-(4-(2-(benzyloxy)ethylamino)-1-(5-methyl-7H-pyrrolo[2,3-d]pyrimidin-4-yl)piperidine-4-carboxamido)phenyl dimethylcarbamate]	< 0.25 µM
Cc1c[nH]c2ncnc(N3CCC(NCCNC(=O)OC(C)(C)C)(C(=O)Nc4cccc(OC(=O)N(C)C)c4)CC3)c12 [3-(4-(2-(tert-butoxycarbonylamino)ethylamino)-1-(5-methyl-7H-pyrrolo[2,3-d]pyrimidin-4-yl)piperidine-4-carboxamido)phenyl dimethylcarbamate]	< 0.25 µM
Cc1c[nH]c2ncnc(N3CCC(NCCN)(C(=O)Nc4cccc(OC(=O)N(C)C)c4)CC3)c12 [3-(4-(2-aminoethylamino)-1-(5-methyl-7H-pyrrolo[2,3-d]pyrimidin-4-yl)piperidine-4-carboxamido)phenyl dimethylcarbamate]	< 0.25 µM
Cc1c[nH]c2ncnc(N3CCC(NCCO)(C(=O)Nc4cccc(OC(=O)N(C)C)c4)CC3)c12 [3-(4-(2-hydroxyethylamino)-1-(5-methyl-7H-pyrrolo[2,3-d]pyrimidin-4-yl)piperidine-4-carboxamido)phenyl dimethylcarbamate]	< 0.25 µM
Cc1c[nH]c2ncnc(N3CCC(CNC(=O)C4(N)CC4)(C(=O)Nc4cccc(OC(=O)N(C)C)c4)CC3)c12 [3-(4-((1-aminocyclopropanecarboxamido)methyl)-1-(5-methyl-7H-pyrrolo[2,3-d]pyrimidin-4-yl)piperidine-4-carboxamido)phenyl dimethylcarbamate]	< 0.25 µM
Cc1c[nH]c2ncnc(N3CCC(CNC(=O)c4cnn(C)c4)(C(=O)Nc4cccc(OC(=O)N(C)C)c4)CC3)c12 [3-(4-((1-methyl-1H-pyrazole-4-carboxamido)methyl)-1-(5-methyl-7H-pyrrolo[2,3-d]pyrimidin-4-yl)piperidine-4-carboxamido)phenyl dimethylcarbamate]	< 0.25 µM
Cc1c[nH]c2ncnc(N3CCC(CNC(=O)C4(NC(=O)OC(C)(C)C)CC4)(C(=O)Nc4cccc(OC(=O)N(C)C)c4)CC3)c12 [3-(4-((1-tert-butoxycarbonylaminocyclopropanecarboxamido)methyl)-1-(5-methyl-7H-pyrrolo[2,3-d]pyrimidin-4-yl)piperidine-4-carboxamido)phenyl dimethylcarbamate]	< 0.25 µM
Cc1c[nH]c2ncnc(N3CCC(Cc4ncc[nH]4)(C(=O)Nc4cccc(OC(=O)N(C)C)c4)CC3)c12 [3-(4-((1H-imidazol-2-yl)methyl)-1-(5-methyl-7H-pyrrolo[2,3-d]pyrimidin-4-yl)piperidine-4-carboxamido)phenyl dimethylcarbamate]	< 0.25 µM
Cc1c[nH]c2ncnc(N3CCC(Cc4nnn[nH]4)(C(=O)Nc4cccc(OC(=O)N(C)C)c4)CC3)c12 [3-(4-((1H-tetrazol-5-yl)methyl)-1-(5-methyl-7H-pyrrolo[2,3-d]pyrimidin-4-yl)piperidine-4-carboxamido)phenyl dimethylcarbamate]	< 0.25 µM
Cc1c[nH]c2ncnc(N3CCC(CNC(=O)CC4NC(=O)NC4=O)(C(=O)Nc4cccc(OC(=O)N(C)C)c4)CC3)c12 (stereo not shown) [3-(4-((2-(2,5-dioxoimidazolidin-4-yl)acetamido)methyl)-1-(5-methyl-7H-pyrrolo[2,3-d]pyrimidin-4-yl)piperidine-4-carboxamido)phenyl dimethylcarbamate]	< 0.25 µM
COCCOCC(=O)NCC1(C(=O)Nc2cccc(OC(=O)N(C)C)c2)CCN(c2ncnc3[nH]cc(C)c23)CC1 [3-(4-((2-(2-methoxyethoxy)acetamido)methyl)-1-(5-methyl-7H-pyrrolo[2,3-d]pyrimidin-4-yl)piperidine-4-carboxamido)phenyl dimethylcarbamate]	< 0.25 µM
Cc1c[nH]c2ncnc(N3CCC(CNC(=O)CN(C)C)(C(=O)Nc4cccc(OC(=O)N(C)C)c4)CC3)c12 [3-(4-((2-(dimethylamino)acetamido)methyl)-1-(5-methyl-7H-pyrrolo[2,3-d]pyrimidin-4-yl)piperidine-4-carboxamido)phenyl dimethylcarbamate]	< 0.25 µM
Cc1c[nH]c2ncnc(N3CCC(CNC(=O)CN)(C(=O)Nc4cccc(OC(=O)N(C)C)c4)CC3)c12 [3-(4-((2-aminoacetamido)methyl)-1-(5-methyl-7H-pyrrolo[2,3-d]pyrimidin-4-yl)piperidine-4-carboxamido)phenyl dimethylcarbamate]	< 0.25 µM
COCC(=O)NCC1(C(=O)Nc2cccc(OC(=O)N(C)C)c2)CCN(c2ncnc3[nH]cc(C)c23)CC1 [3-(4-((2-methoxyacetamido)methyl)-1-(5-methyl-7H-pyrrolo[2,3-d]pyrimidin-4-yl)piperidine-4-carboxamido)phenyl dimethylcarbamate]	< 0.25 µM
Cc1c[nH]c2ncnc(N3CCC(CNC(=O)C(C)(CO)CO)(C(=O)Nc4cccc(OC(=O)N(C)C)c4)CC3)c12 [3-(4-((3-hydroxy-2-(hydroxymethyl)-2-methylpropanamido)methyl)-1-(5-methyl-7H-pyrrolo[2,3-d]pyrimidin-4-yl)piperidine-4-carboxamido)phenyl dimethylcarbamate]	< 0.25 µM
COCCC(=O)NCC1(C(=O)Nc2cccc(OC(=O)N(C)C)c2)CCN(c2ncnc3[nH]cc(C)c23)CC1 [3-(4-((3-methoxypropanamido)methyl)-1-(5-methyl-7H-pyrrolo[2,3-d]pyrimidin-4-yl)piperidine-4-carboxamido)phenyl dimethylcarbamate]	< 0.25 µM
Cc1cc(C(=O)NCC2(C(=O)Nc3cccc(OC(=O)N(C)C)c3)CCN(c3ncnc4[nH]cc(C)c34)CC2)n[nH]1 [3-(4-((5-methyl-1H-pyrazole-3-carboxamido)methyl)-1-(5-methyl-7H-pyrrolo[2,3-d]pyrimidin-4-yl)piperidine-4-carboxamido)phenyl dimethylcarbamate]	< 0.25 µM
Cc1c[nH]c2ncnc(N3CCC(CNS(=O)(=O)N(C)C)(C(=O)Nc4cccc(OC(=O)N(C)C)c4)CC3)c12 [3-(4-((N,N-dimethylsulfamoylamino)methyl)-1-(5-methyl-7H-pyrrolo[2,3-d]pyrimidin-4-yl)piperidine-4-carboxamido)phenyl dimethylcarbamate]	< 0.25 µM
Cc1c[nH]c2ncnc(N3CCC(Cc4nnnn4Cc4ccccc4)(C(=O)Nc4cccc(OC(=O)N(C)C)c4)CC3)c12 [3-(4-((l-benzyl-1H-tetrazol-5-yl)methyl)-1-(5-methyl-7H-pyrrolo[2,3-d]pyrimidin-4-yl)piperidine-4-carboxamido)phenyl dimethylcarbamate]	< 0.25 µM
COC(=O)NCC1(C(=O)Nc2cccc(OC(=O)N(C)C)c2)CCN(c2ncnc3[nH]cc(C)c23)CC1 [3-(4-((methoxycarbonylaminomethyl)-1-(5-methyl-7H-pyrrolo[2,3-d]pyrimidin-4-yl)piperidine-4-carboxamido)phenyl dimethylcarbamate]	< 0.25 µM
